Among the test systems are ACHN; DU-145; HCT-15; HOP-62; HOP-92; IGROV-1; KM12; LOX IMVI; MDA-N; OVCAR-4; OVCAR-5; RXF 393; SK-MEL-28; SK-MEL-2; SK-MEL-5; T47D; TK-10; OVCAR-8; A498.
Common to all, as to test: growth of human tumour cells (NCI), 48 h

The structures appear in SMILES notation.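 1) Cells in 96-well plates. 2) Compound, 48 h, 5 concentrations. 3) Linear interpolation between surrounding doses. 4) Unreached endpoint = highest concentration. Here, GI50 denotes the concentration required for 50% inhibition of growth.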 Calls of active or inactive are those of the source. No stated cut-off is given here; in the data, active = GI50 up to about 1.1 µM and inactive = higher.

With `Cc1ccc(/N=N/c2c(C)c(C#N)c(=S)n(C3OC(CO)C(O)C(O)C3O)c2C)cc1` (centres undefined), the GI50 is 34 µM (inactive) in the assay on ACHN; 53.1 µM (inactive) with DU-145; 39 µM in the assay on HCT-15; 34.3 µM (inactive) with HOP-62; 11.7 µM (inactive) with HOP-92; 38.9 µM (inactive) in the assay with IGROV-1. For the same compound, the GI50 was 41.1 µM (inactive) in the assay on KM12; 18.2 µM (inactive) in the assay on LOX IMVI; 36.4 µM (inactive) in the assay on MDA-N; 34.4 µM (inactive) with OVCAR-4; 38.3 µM (inactive) with OVCAR-5; 26.1 µM (inactive) with RXF 393. Moreover, the GI50 in the assay on SK-MEL-28 is 22.1 µM (inactive); in the assay with SK-MEL-2, 30.6 µM (inactive); in the assay on SK-MEL-5, 17.4 µM (inactive); with T47D, 23.3 µM (inactive); in the assay with TK-10, 63.1 µM (inactive).
As to `Cc1nnc(Nc2ccccc2)o1`, the GI50 was > 100 µM (inactive) with ACHN; > 100 µM (inactive) in the assay with DU-145; above 100 µM with HCT-15; > 100 µM (inactive) in the assay with KM12; > 100 µM (inactive) in the assay with LOX IMVI; > 100 µM (inactive) in the assay on MDA-N. Further, the GI50 was > 100 µM (inactive) with OVCAR-4; > 100 µM (inactive) in the assay on OVCAR-5; > 100 µM (inactive) with OVCAR-8; > 100 µM (inactive) in the assay on RXF 393; > 100 µM (inactive) in the assay with SK-MEL-28; 70.8 µM (inactive) in the assay with SK-MEL-2. In addition, the GI50 in the assay on SK-MEL-5, in the assay with T47D and in the assay on TK-10 was > 100 µM (inactive) throughout.
Turning to `Cc1nn(C(=O)c2ccc(Cl)cc2)c2c1C(c1ccccc1)SC(=N)N2` (centres undefined), the GI50 is > 10 µM (inactive) in the assay with ACHN; > 10 µM (inactive) with DU-145; above 10 µM in the assay on HCT-15; > 10 µM (inactive) in the assay with HOP-62; > 10 µM (inactive) in the assay with HOP-92; > 10 µM (inactive) in the assay on IGROV-1. The GI50 in the assay on KM12, in the assay on LOX IMVI, in the assay on MDA-N, with OVCAR-4, in the assay with OVCAR-5 and in the assay with OVCAR-8 was > 10 µM (inactive) in each case. Also, the GI50 in the assay on RXF 393, with SK-MEL-28, in the assay with SK-MEL-2, with SK-MEL-5, with T47D and with TK-10 was > 10 µM (inactive) throughout.
With `CCN(CC)Cc1cc(Nc2c3ccccc3nc3c4ccccc4n(C)c23)cc(CN(CC)CC)c1O`, the GI50 was 6.07 µM (inactive) in the assay on A498; 5.43 µM (inactive) in the assay with ACHN; 8.67 µM (inactive) in the assay with DU-145; 4.1 µM in the assay with HCT-15; 4.4 µM (inactive) with HOP-62; 4.6 µM (inactive) in the assay with HOP-92. Besides, the GI50 in the assay with IGROV-1 was 9.98 µM (inactive); in the assay on KM12, 6.58 µM (inactive); with OVCAR-4 it was 4.43 µM (inactive); in the assay on OVCAR-5 it was 6.84 µM (inactive); in the assay on OVCAR-8, 4.39 µM (inactive); in the assay with RXF 393 it was 3.16 µM (inactive). Besides, the GI50 is 2.37 µM (inactive) in the assay with SK-MEL-28; 2.67 µM (inactive) with SK-MEL-2; 1.65 µM (inactive) in the assay on SK-MEL-5; 3.18 µM (inactive) with T47D; 10.9 µM (inactive) with TK-10.
Turning to `O=C(Nc1cccc2nsnc12)c1cc2c(cc1Cl)Sc1nccn1S2(=O)=O`, the GI50 was 13.6 µM (inactive) in the assay on A498; 12.7 µM (inactive) in the assay on ACHN; 5.19 µM in the assay on HCT-15; 1.78 µM (inactive) in the assay on HOP-62; 4.4 µM (inactive) in the assay on HOP-92; 11.5 µM (inactive) in the assay with IGROV-1. The GI50 in the assay with KM12 was 2.08 µM (inactive); in the assay with LOX IMVI, 8.43 µM (inactive); in the assay on MDA-N, 14.1 µM (inactive); in the assay with OVCAR-4, 3.31 µM (inactive); in the assay with OVCAR-5 it was 32.4 µM (inactive); with OVCAR-8, 2.73 µM (inactive). Also, the GI50 in the assay with RXF 393 is 4.6 µM (inactive); in the assay on SK-MEL-28, 3.01 µM (inactive); in the assay on SK-MEL-2, 11.2 µM (inactive); with SK-MEL-5 it was 17.9 µM (inactive); with T47D it was 2.24 µM (inactive); in the assay with TK-10, 6.01 µM (inactive).
Consider `COCOc1cc(OC)ccc1C=O`, for which the GI50 in the assay on ACHN is 95.7 µM (inactive); in the assay on DU-145, 53.3 µM (inactive); in the assay with HCT-15, 36.4 µM; in the assay on HOP-62, 72.3 µM (inactive); with IGROV-1, 33.1 µM (inactive); in the assay on KM12, 34 µM (inactive). Moreover, the GI50 with LOX IMVI is 53 µM (inactive); with MDA-N it was 5.58 µM (inactive); with OVCAR-4, 78 µM (inactive); in the assay on OVCAR-5, > 100 µM (inactive); in the assay on OVCAR-8, 41.3 µM (inactive); in the assay with RXF 393, 14.7 µM (inactive). The GI50 in the assay on SK-MEL-28 is > 100 µM (inactive); in the assay with SK-MEL-2 it was 34 µM (inactive); in the assay with SK-MEL-5 it was 27.4 µM (inactive); in the assay with T47D, 44.7 µM (inactive); in the assay with TK-10 it was 31.6 µM (inactive).
Turning to `CSc1c(C(=O)Nc2ccc(C)cc2)c(N)n(N)c(=O)c1C#N`, the GI50 with A498 is > 100 µM (inactive); in the assay on DU-145, > 100 µM (inactive); in the assay on HCT-15, above 100 µM; in the assay on IGROV-1 it was > 100 µM (inactive); with KM12, > 100 µM (inactive); with LOX IMVI, > 100 µM (inactive). The GI50 in the assay on MDA-N, in the assay with OVCAR-4, in the assay with OVCAR-5, with OVCAR-8, in the assay with RXF 393 and with SK-MEL-28 was > 100 µM (inactive) in each case. Also, the GI50 in the assay with SK-MEL-2, in the assay with SK-MEL-5, with T47D and in the assay on TK-10 was > 100 µM (inactive) in each case.
Regarding `NC(=O)C(=CN1C(=O)CC(=O)NC1=S)C(N)=O`, the GI50 in the assay with A498 is > 100 µM (inactive); in the assay with ACHN, > 100 µM (inactive); with DU-145, > 100 µM (inactive); in the assay with HCT-15 it was above 100 µM; with HOP-62, > 100 µM (inactive); in the assay on HOP-92, > 100 µM (inactive). The GI50 in the assay with IGROV-1, in the assay with KM12, in the assay with LOX IMVI, with OVCAR-4, with OVCAR-5 and in the assay with OVCAR-8 was > 100 µM (inactive) throughout. The GI50 in the assay on RXF 393, in the assay with SK-MEL-28, in the assay with SK-MEL-2, with SK-MEL-5, in the assay with T47D and in the assay on TK-10 was > 100 µM (inactive) each time.
`c1ccc2c(c1)ccn1ccc3c4ccccc4nc-3c21`: the GI50 was 0.0527 µM (active) in the assay on A498; 0.228 µM (active) in the assay with ACHN; 0.351 µM (active) with DU-145; 0.305 µM with HCT-15; 0.411 µM (active) in the assay on HOP-62; 1.41 µM (inactive) in the assay with HOP-92. Moreover, the GI50 is 0.394 µM (active) in the assay on IGROV-1; 0.346 µM (active) in the assay on KM12; 0.366 µM (active) with LOX IMVI; 0.332 µM (active) in the assay on OVCAR-4; 0.475 µM (active) in the assay with OVCAR-5; 0.182 µM (active) with OVCAR-8. Also, the GI50 in the assay on RXF 393 is 0.439 µM (active); in the assay with SK-MEL-28 it was 0.368 µM (active); in the assay on SK-MEL-2, 1.17 µM (inactive); in the assay with SK-MEL-5, 0.454 µM (active); in the assay on T47D it was 0.71 µM (active); in the assay on TK-10 it was 1.16 µM (inactive).
